Measurements from patent publication US10912850B2, “18F-FNDP for pet imaging of soluble epoxide hydrolase (sEH)” (THE JOHNS HOPKINS UNIVERSITY, priority 2016, dated 2021).
Several values for one entry are separate records, joined by “and”; a condition that tells them apart may be missing. Equal values may be shown once. Read-outs that look alike come from different tables or passages of the source.

Key:
[1] = Molecular properties (log P); type: physicochemical
[2] = Baseline regional brain biodistribution of 18F-FNDP in CD-1 mice; type: in vivo; settings: for Regional distribution in CD-1 mouse brain (mean % ID/g tissue ± SD): n=3
Protocol: Baseline study in CD1 mice. […] The brains were removed and dissected on ice. Striatum, cortex, hippocampus, hypothalamus, cerebellum and the rest of brain were weighed and their radioactivity content was determined in a γ-counter LKB/Wallac 1283 CompuGamma CS (Perkin Elmer, Bridgeport, Conn.). Aliquots of the injectate were prepared as standards and their radioactivity content was determined along with the tissue samples. The percent of injected dose per gram of tissue (% ID/g tissue) was calculated.

[3] = molecular target: T1, sEH (Mus musculus, UniProt P34914); experiment: Blocking of 18F-FNDP binding in CD-1 mice with nor-fluoro-FNDP (dose escalation); type: in vivo
T1 construct: from tissue; host or cells: brain of living CD-1 mice (striatum, cortex, hippocampus, cerebellum)
T1 sequence (P34914 1-554): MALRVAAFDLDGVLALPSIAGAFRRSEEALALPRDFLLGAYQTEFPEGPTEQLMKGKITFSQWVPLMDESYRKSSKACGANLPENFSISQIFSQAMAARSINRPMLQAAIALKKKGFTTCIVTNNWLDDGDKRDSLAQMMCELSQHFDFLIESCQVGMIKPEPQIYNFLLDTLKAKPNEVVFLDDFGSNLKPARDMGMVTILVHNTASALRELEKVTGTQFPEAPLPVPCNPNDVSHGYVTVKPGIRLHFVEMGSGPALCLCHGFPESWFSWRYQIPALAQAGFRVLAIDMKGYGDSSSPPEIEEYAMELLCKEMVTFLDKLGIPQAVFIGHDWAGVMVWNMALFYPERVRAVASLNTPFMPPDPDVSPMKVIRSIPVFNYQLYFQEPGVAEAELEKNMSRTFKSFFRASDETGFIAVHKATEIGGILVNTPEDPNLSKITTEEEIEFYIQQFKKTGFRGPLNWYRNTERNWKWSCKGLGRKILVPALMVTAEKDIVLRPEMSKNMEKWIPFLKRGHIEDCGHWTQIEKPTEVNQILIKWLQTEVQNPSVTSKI
Protocol: Ninety minutes after administration of the radiotracer the animals were sacrificed by cervical dislocation, brain tissues were harvested, and their radioactivity content was determined.

[4] = system: sEH; type: in vivo, mice (sEH-KO, C57BL/6); settings: for Regional uptake, baseline: C57BL6 control mice, 60 min post-injection
Protocol: All animals were sacrificed at 60 min after radiotracer injection.

[5] = system: sEH; experiment: Baboon dynamic PET imaging, baseline and blocking (SUV, VT, K1); settings: for Time of regional TAC peak: post-injection; for Average K1 (rate constant for transfer from arterial plasma to tissue): two-tissue-three-compartment model
Protocol: Dynamic baseline and blocking PET experiments (90 min) were performed on three male baboons (Papio anubis) weighing 23.9, 25.0 and 28.2 kg, using the High Resolution Research Tomograph (HRRT, CPS Innovations, Inc., Knoxville, Tenn.). […] Radiometabolite analysis in baboon arterial blood was performed under the general conditions published previously (Hilton et al., Nucl. Med. Biol., 2000).
PET experiments were performed on a male baboon (Papio anubis) weighing 28.2 kg, using the High Resolution Research Tomograph (HRRT, CPS Innovations, Inc., Knoxville, Tenn.). The animal underwent one baseline PET scan and one blocking scan 3 weeks later. The animal was fasted for 12 h prior to each PET study. Anesthesia was induced with intramuscular ketamine (7.5-10 mg/kg) and maintained with a continuous intravenous infusion of propofol at 0.3-0.4 mg/kg/min throughout the PET experiment. One venous catheter was inserted for the radioligand injection, and one arterial catheter inserted to obtain arterial blood samples. Measurement of the arterial plasma input function was conducted through collection of 43 blood samples over the course of the 90 min dynamic PET scan. The baboon was also intubated to facilitate respiration, and circulatory volume was maintained by constant infusion of isotonic saline. Physiological vital signs including heart rate, blood pressure, electrocardiogram, and oxygen saturation were monitored continuously throughout the study.
The animal was positioned in the PET scanner with the head immobilized with a thermoplastic mask. A 6 min transmission scan was acquired using a rotating [^137Cs] cesium source for attenuation correction.
The 90 min PET list mode data were binned into 22 frames (three 20 s, two 30 s, two 1 min, three 2 min, eight 5 min, and four 10 min frames). The data were then reconstructed using the iterative ordered subsets expectation maximization (OS-EM) algorithm (with six iterations and 16 subsets), with correction for radioactive decay, dead time, attenuation, scatter and randoms. The attenuation maps were generated from 6 min transmission scans performed with a [^137Cs] cesium point source prior to the emission scans. The reconstructed image space consisted of cubic voxels, each 1.22 mm^3 in size, and spanning dimensions of 31 cm×31 cm (transaxially) and 25 cm (axially).
The software package PMOD (v3.3, PMOD Technologies Ltd, Zurich, Switzerland) was used for the following image processing and subsequent kinetic analysis steps. The previously acquired brain MRI T1-weighted images for the baboon were co-registered to the reconstructed dynamic PET images acquired in this study. Through manually matching the co-registered MRI to the INIA19 Template and NeuroMaps Atlas for Primate Brain Image Parcellation and Spatial Normalization (Rohlfing et al., Frontiers in neuroinformatics, 2012), 13 representative baboon brain VOIs were defined, including frontal and temporal gyms, thalamus, hippocampus, caudate, putamen, amygdala, globus pallidus, insula, hypothalamus, cerebellum, corpus callosum, and white matter. Brain regional TACs were then generated for both baseline and blocking PET scans using those VOIs.
Following the consensus nomenclature for in vivo imaging of reversibly binding radioligands (Innis et al., J. Cereb. Blood Flow Metab., 2007), due to the lack of a non-displaceable reference region, the main outcome measure was regional distribution volume (VT), defined as the ratio of the concentration of the radioligand in regional brain tissue to that in plasma at equilibrium. Regional VT is proportional to the receptor density in the defined VOL VT was calculated using the Logan graphical method for each VOI (Logan et al., J. Cereb. Blood Flow Metab., 1990).

[6] = Radiometabolite HPLC analysis of baboon arterial plasma; type: in vivo, Papio anubis (baboon); settings: 90 min post-injection
Protocol: Baboon arterial blood samples were collected at very short intervals (<5 s) initially and gradually at prolonged intervals throughout the PET study for determination of plasma radioactivity. […] Med. Biol., 2000). […] The effluent from the capture column, containing only highly polar components, flowed through a dual BGO detector (Bioscan, Washington, D.C.). The solvent was then switched to a mixture of 60% acetonitrile/40% 0.1 M aqueous ammonium formate pH=2.7 (2 mL/min) to elute the radiolabeled components bound to the capture column onto the analytical column (Gemini C18, 4.6×254 mm, Phenomenex, Torrance, Calif.).

O=C(NCCC(c1ccccc1)c1ccccc1)c1ccc(F)nc1 [FNDP, N-(3,3-diphenylpropyl)-6-fluoronicotinamide]
log P [1]: 2.9

O=C(NCCC(c1ccccc1)c1ccccc1)c1ccc([18F])nc1 [^18F-FNDP, N-(3,3-diphenylpropyl)-6-^18F-fluoronicotinamide]
Peak brain uptake ([2]; CD-1 mice, at peak uptake): 5.2 percent injected dose per gram of tissue | Regional distribution in CD-1 mouse brain (mean % ID/g tissue ± SD) ([2]; Cerebellum, 5 min): 2.75 ± 0.11 % ID/g tissue | Regional distribution in CD-1 mouse brain (mean % ID/g tissue ± SD) ([2]; Cerebellum, 15 min): 1.31 ± 1.01 % ID/g tissue | Regional distribution in CD-1 mouse brain (mean % ID/g tissue ± SD) ([2]; Cerebellum, 30 min): 1.09 ± 0.16 % ID/g tissue | Regional distribution in CD-1 mouse brain (mean % ID/g tissue ± SD) ([2]; Cerebellum, 60 min): 0.52 ± 0.07 % ID/g tissue | Regional distribution in CD-1 mouse brain (mean % ID/g tissue ± SD) ([2]; Cerebellum, 90 min): 0.29 ± 0.04 % ID/g tissue | Regional distribution in CD-1 mouse brain (mean % ID/g tissue ± SD) ([2]; Cortex, 5 min): 4.69 ± 0.21 % ID/g tissue | Regional distribution in CD-1 mouse brain (mean % ID/g tissue ± SD) ([2]; Cortex, 15 min): 2.92 ± 0.36 % ID/g tissue | Regional distribution in CD-1 mouse brain (mean % ID/g tissue ± SD) ([2]; Cortex, 30 min): 2.07 ± 0.05 % ID/g tissue | Regional distribution in CD-1 mouse brain (mean % ID/g tissue ± SD) ([2]; Cortex, 60 min): 0.87 ± 0.14 % ID/g tissue | Regional distribution in CD-1 mouse brain (mean % ID/g tissue ± SD) ([2]; Cortex, 90 min): 0.45 ± 0.05 % ID/g tissue | Regional distribution in CD-1 mouse brain (mean % ID/g tissue ± SD) ([2]; Hippocampus, 5 min): 3.29 ± 0.54 % ID/g tissue | Regional distribution in CD-1 mouse brain (mean % ID/g tissue ± SD) ([2]; Hippocampus, 15 min): 2.51 ± 0.34 % ID/g tissue | Regional distribution in CD-1 mouse brain (mean % ID/g tissue ± SD) ([2]; Hippocampus, 30 min): 1.76 ± 0.15 % ID/g tissue | Regional distribution in CD-1 mouse brain (mean % ID/g tissue ± SD) ([2]; Hippocampus, 60 min): 0.81 ± 0.15 % ID/g tissue | Regional distribution in CD-1 mouse brain (mean % ID/g tissue ± SD) ([2]; Hippocampus, 90 min): 0.43 ± 0.06 % ID/g tissue | Regional distribution in CD-1 mouse brain (mean % ID/g tissue ± SD) ([2]; Hypothalamus, 5 min): 2.59 ± 0.18 % ID/g tissue | Regional distribution in CD-1 mouse brain (mean % ID/g tissue ± SD) ([2]; Hypothalamus, 15 min): 1.66 ± 0.28 % ID/g tissue | Regional distribution in CD-1 mouse brain (mean % ID/g tissue ± SD) ([2]; Hypothalamus, 30 min): 1.04 ± 0.08 % ID/g tissue | Regional distribution in CD-1 mouse brain (mean % ID/g tissue ± SD) ([2]; Hypothalamus, 60 min): 0.51 ± 0.07 % ID/g tissue | Regional distribution in CD-1 mouse brain (mean % ID/g tissue ± SD) ([2]; Hypothalamus, 90 min): 0.31 ± 0.05 % ID/g tissue | Regional distribution in CD-1 mouse brain (mean % ID/g tissue ± SD) ([2]; Rest of brain, 5 min): 3.53 ± 0.11 % ID/g tissue | Regional distribution in CD-1 mouse brain (mean % ID/g tissue ± SD) ([2]; Rest of brain, 15 min): 2.37 ± 0.34 % ID/g tissue | Regional distribution in CD-1 mouse brain (mean % ID/g tissue ± SD) ([2]; Rest of brain, 30 min): 1.64 ± 0.06 % ID/g tissue | Regional distribution in CD-1 mouse brain (mean % ID/g tissue ± SD) ([2]; Rest of brain, 60 min): 0.71 ± 0.10 % ID/g tissue | Regional distribution in CD-1 mouse brain (mean % ID/g tissue ± SD) ([2]; Rest of brain, 90 min): 0.38 ± 0.04 % ID/g tissue | Regional distribution in CD-1 mouse brain (mean % ID/g tissue ± SD) ([2]; Striatum, 5 min): 5.24 ± 0.45 % ID/g tissue | Regional distribution in CD-1 mouse brain (mean % ID/g tissue ± SD) ([2]; Striatum, 15 min): 3.29 ± 0.36 % ID/g tissue | Regional distribution in CD-1 mouse brain (mean % ID/g tissue ± SD) ([2]; Striatum, 30 min): 2.32 ± 0.15 % ID/g tissue | Regional distribution in CD-1 mouse brain (mean % ID/g tissue ± SD) ([2]; Striatum, 60 min): 1.07 ± 0.14 % ID/g tissue | Regional distribution in CD-1 mouse brain (mean % ID/g tissue ± SD) ([2]; Striatum, 90 min): 0.54 ± 0.07 % ID/g tissue | Peak brain uptake value ([2]; mouse brain, peak (5 min post-injection)): 5.2 % ID/g and 5 % ID/g | Residual (non-specific) binding at the high dose of the blocker ([3]; CD-1 mouse brain, blocker nor-fluoro-FNDP): 10% | Blockade of uptake ([3]; mice, all brain regions, pre-treatment with sEH inhibitor): 80-90% | Degree of specificity of cerebral sEH labeling ([3]; two strains of control mice (CD-1 and C57BL/6)): 80-90% | Regional uptake, baseline ([4]; cerebellum): 0.5 % ID/g | Regional uptake, baseline ([4]; striatum, hippocampus and cortex): about 1 % ID/g | Brain uptake, blocking experiment ([4]; C57BL6 mice, all regions studied, nor-fluoro-FNDP 1 mg/kg s.c., 60 min): ~0.2 % ID/g tissue | Blocking effect ([4]; C57BL/6 controls, nor-fluoro-FNDP 1 mg/kg s.c.): about 80% | Reduction of uptake in sEH-KO mice as compared with controls ([4]; baseline, 60 min after radiotracer injection, C57BL/6 controls): about 90% | Radiotracer uptake in sEH-KO mice ([4]; sEH-KO mice): Minimal | Regional brain uptake, baseline ([4]; sEH-KO mice, 60 min): 0.11-0.12 % ID/g | Reduction of uptake in blockade study ([4]; sEH-KO mice, blocker nor-fluoro-FNDP): negligible | Regional brain uptake, blocking ([4]; sEH-KO mice, nor-fluoro-FNDP 1 mg/kg s.c., 60 min): 0.10-0.11 % ID/g | Brain uptake in sEH-KO mice lower than in controls ([4]; sEH-KO vs controls): 10 fold | Blockade of brain uptake ([5]; baboon PET, all regions): 95% | Time of regional TAC peak ([5]; baboon blocking study (nor-fluoro-FNDP 2 mg/kg s.c.)): about 1 min | Average SUV at the end of the scan ([5]; baboon blocking study, end of 90 min scan): 0.18 g/mL | Brain SUV ([5]; baboon brain): 4 | Time of regional TAC peak ([5]; baboon brain, baseline scan): about 5 min | Peak SUV of the entire brain ([5]; baboon, baseline scan): 3.2 | SUV of the entire brain at the end of the scan ([5]; baboon, baseline, end of 90 min dynamic scan): 1.8 | Average K1 (rate constant for transfer from arterial plasma to tissue) ([5]; baboon, baseline): 0.18 ml/cm^3/min | Average K1 (rate constant for transfer from arterial plasma to tissue) ([5]; baboon, blocking): 0.14 ml/cm^3/min | Reduction of VT, blocking vs baseline ([5]; baboon, cerebellum): 93% | Average SUV at end of blocking scan as percent of the baseline value ([5]; baboon, end of 90 min scan): 10% | Reduction of VT, blocking vs baseline ([5]; baboon, insula and amygdala): 95% | Specificity of sEH radiolabeling ([5]; both animal species (mouse and baboon)): up to 95% | Parent compound remaining in plasma [6]: 20%
